This experiment deals with T1, VEGFR2 (Homo sapiens, UniProt P35968).
T1 construct: host or cells: HUVEC
The experiment can be described thus: VEGFR2 Phospho ELISA assay in HUVEC, VEGF stimulated. As to conditions: 1 hour compound, 50 ng/mL VEGF 10 minutes. Type of experiment: cell-based. How it is done:
Adult human umbilical vein endothelial cells (HUVEC) (Cat#CC-2519, Lonza) were seeded into clear-bottom, TC treated 12 well plates (Cat #665180, Greiner Bio-One) in EGM-2 (Cat#CC-3162, Lonza) at 180,000 cells/well (volume 1 mL), and the plates incubated at 37° C. and 5% CO2 for 6 hours. The media was replaced with EBM-2 (Cat #CC-3156, Lonza)+0.1% BSA (Cat#A8412, Sigma) and cells incubated for a further period (overnight at 37° C. and 5% CO2).
96 well Maxisorp immuno plates (Cat #439454, Nunc) were coated with 100 μL of Total VEGFR^2 capture antibody (Part #841434, Human Total VEGFR^2/FLT4 ELISA Kit, Cat #DYC1780, R&D Systems), or Phospho VEGFR^2 Capture antibody (Part #841419, Human Phospho VEGFR^2/FLT4 ELISA Kit, Cat#DYC1766, R&D Systems). The plates were covered and incubated at room temperature overnight.
The coating antibody was flicked out and the plates washed three times with Wash Buffer (Phosphate buffered saline (137 mM NaCl, […], […], […], pH 7.2-7.4), 0.05% Tween 20). 300 μL of Blocking buffer (1% v/v BSA (Cat#A8412, Sigma) in PBS) was then added to wells and plate incubated for 2 hours at room temperature. Blocking solution is flicked out and plates washed three times and tapped dry.
Compound dilution series were prepared in EBM-2 (Cat #CC-3156, Lonza)+0.1% BSA (Cat#A8412, Sigma) with constant 0.1% DMSO concentration. 427.5 μL of sample or vehicle control was added to the cell monolayers. Cells are treated for 1 hour at 37° C. and 5% CO2. 50 ng/mL Recombinant human VEGF (Cat #293-VC, R & D Systems) added to wells and plates incubated for an additional 10 minutes at 37° C. and 5% CO2.
The media and compounds were removed and the cell monolayer washed once in Dulbecco's Phosphate Buffered Saline (Cat #21600-044, Invitrogen). 130 μL of Lysis buffer added to wells and cell lysate harvested and transferred to tubes and stored on ice. Complete lysis buffer was prepared by adding 10 μL Protease Inhibitor Cocktail (Cat #P8340, Sigma-Aldrich), 10 μL PMSF (Phenylmethanesulfonyl fluoride, Cat #P7626, Sigma-Aldrich, prepared as 500 mM DMSO stock) per 1 mL of Phosphosafe™ Extraction Reagent (Cat #71296, Merck).
The harvested samples were then diluted 1:2 in IC Diluent #12 (1% NP-40, […] (pH 8.0), 137 mM NaCl, 10% glycerol, 2 mM EDTA, 1 mM activated sodium orthovanadate) and 100 μL transferred to the Total and Phospho VEGFR^2 coated, blocked and washed 96 well plates and incubated for 2 hours at room temperature. The plates were then washed three times in wash buffer as described above and tapped dry.
For detection of Total VEGFR^2100 μL of Detection antibody (Total VEGFR^2 Detection Antibody Part#841435 in Total VEGFR^2 kit) diluted in IC Diluent #14 (20 mM Tris, […], 0.05% Tween20, 0.1% BSA) was added to wells and the plate incubated for 2 hours at room temperature. The plate was then washed three times in wash buffer and tapped dry. 100 μL of streptavidin-HPR diluted in IC diluent #14 Streptavidin-HRP, Part #890803 in Total VEGFR^2 kit) was added to wells and incubated at room temperature for 20 minutes followed by washing as described above. 100 μL Substrate solution (3,3′,5,5′-Tetramethylbenzidine (TMB) Liquid Substrate System for ELISA, Cat #T0440, Sigma-Aldrich) was added and the plate incubated for 20 minutes in the dark at room temperature followed by the addition of 50 μL stop solution (2 M H2SO4).
Total VEGFR^2 levels were quantified using a Multiskan Ascent plate reader and Ascent software fitted with 450 nm filter.
For detection of Phospho VEGFR^2, 100 μL of Detection antibody (Anti-Phospho-Tyrosine-HRP Detection Antibody, Part #841403 in Phospho VEGFR^2 kit) was diluted in IC Diluent 14 (20 mM Tris, […], 0.05% Tween20, 0.1% BSA), was added to the wells and the plate incubated for 2 hours at room temperature. The plate was then washed three times in wash buffer as described above and tapped dry. […]
(ELISA stands for enzyme-linked immunosorbent assay.)

T1 sequence (P35968 20-1356): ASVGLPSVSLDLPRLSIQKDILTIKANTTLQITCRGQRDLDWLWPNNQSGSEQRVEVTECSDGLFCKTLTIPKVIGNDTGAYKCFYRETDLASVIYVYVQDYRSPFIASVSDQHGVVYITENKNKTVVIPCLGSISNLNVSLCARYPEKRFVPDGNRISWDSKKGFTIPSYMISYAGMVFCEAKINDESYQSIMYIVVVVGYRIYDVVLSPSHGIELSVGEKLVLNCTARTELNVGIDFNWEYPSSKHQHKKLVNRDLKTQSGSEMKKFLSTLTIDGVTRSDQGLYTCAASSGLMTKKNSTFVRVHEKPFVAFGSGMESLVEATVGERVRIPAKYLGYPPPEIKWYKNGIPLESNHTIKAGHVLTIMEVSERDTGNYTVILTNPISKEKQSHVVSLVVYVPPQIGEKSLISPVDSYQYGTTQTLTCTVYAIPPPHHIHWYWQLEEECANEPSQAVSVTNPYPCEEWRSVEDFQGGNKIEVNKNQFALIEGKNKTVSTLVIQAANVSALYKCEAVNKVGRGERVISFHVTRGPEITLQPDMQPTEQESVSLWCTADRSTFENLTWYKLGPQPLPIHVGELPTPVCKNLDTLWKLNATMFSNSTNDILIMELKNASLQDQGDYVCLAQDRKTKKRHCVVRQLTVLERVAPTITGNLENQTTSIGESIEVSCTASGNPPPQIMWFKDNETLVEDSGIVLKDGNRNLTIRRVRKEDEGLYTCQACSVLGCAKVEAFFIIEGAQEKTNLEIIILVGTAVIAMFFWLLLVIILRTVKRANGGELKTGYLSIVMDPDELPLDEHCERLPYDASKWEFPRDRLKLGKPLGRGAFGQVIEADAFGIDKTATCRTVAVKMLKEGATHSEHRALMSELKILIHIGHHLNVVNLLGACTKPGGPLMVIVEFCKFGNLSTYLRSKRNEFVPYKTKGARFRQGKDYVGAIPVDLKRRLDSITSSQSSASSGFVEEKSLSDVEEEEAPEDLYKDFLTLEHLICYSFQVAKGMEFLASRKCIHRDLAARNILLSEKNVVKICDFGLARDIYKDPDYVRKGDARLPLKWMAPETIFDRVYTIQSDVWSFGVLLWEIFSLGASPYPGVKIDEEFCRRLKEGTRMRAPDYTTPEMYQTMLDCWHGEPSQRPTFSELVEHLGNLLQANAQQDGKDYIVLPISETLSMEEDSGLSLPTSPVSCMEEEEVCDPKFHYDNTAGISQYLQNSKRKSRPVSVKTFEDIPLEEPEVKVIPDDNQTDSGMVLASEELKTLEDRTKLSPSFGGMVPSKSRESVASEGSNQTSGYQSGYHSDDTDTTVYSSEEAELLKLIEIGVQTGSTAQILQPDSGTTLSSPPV

The term IC50 denotes the concentration needed to halve the response being measured. Lower therefore signals greater potency. `Cc1cnc(Nc2ccc(N3CCNCC3)cc2)nc1CCc1ccccc1CC(N)=O` [Compound 2, 2-(2-(2-(5-methyl-2-((4-(piperazin-1-yl)phenyl)amino)pyrimidin-4-yl)ethyl)phenyl)acetamide]: it took 4400 nM to reach half-maximal inhibition (IC50). Compound `Cc1cnc(Nc2ccc(C3CCNCC3)nc2)nc1CCc1ccccc1CC(N)=O` [Compound 4, 2-(2-(2-(5-methyl-2-((6-(piperidin-4-yl)pyridin-3-yl)amino)pyrimidin-4-yl)ethyl)phenyl)acetamide] had an IC50 of more than 10000 nM. The compound `CC(N)c1ccc(Nc2ncc(C(F)(F)F)c(CCc3ccccc3CC(N)=O)n2)cc1` (stereo not drawn) [Compound 18, 2-(2-(2-(2-(4-(1-aminoethyl)phenylamino)-5-(trifluoromethyl)pyrimidin-4-yl)ethyl)phenyl)acetamide] registered an IC50 of 2550 nM. As for `Cc1cnc(Nc2cccnc2)nc1CCc1ccccc1CC(N)=O` [Compound 24, 2-(2-(2-(5-methyl-2-(pyridin-3-ylamino)pyrimidin-4-yl)ethyl)phenyl)acetamide], the IC50 was more than 10000 nM. The compound `Cc1cnc(Nc2ccc(OC3CCNCC3)cc2)nc1CCc1ccccc1CC(N)=O` [Compound 26, 2-(2-(2-(5-methyl-2-((4-(piperidin-4-yloxy)phenyl)amino)pyrimidin-4-yl)ethyl)phenyl)acetamide] gave an IC50 of 4070 nM. In the case of `Cc1cnc(Nc2cnn(C)c2)nc1CCc1ccccc1CC(N)=O` [Compound 28, 2-(2-(2-(5-methyl-2-((1-methyl-^1H-pyrazol-4-yl)amino)pyrimidin-4-yl)ethyl)phenyl)acetamide], the IC50 was found to be 6840 nM. Consider `Cc1cnc(Nc2ccc(C3(N)COC3)cc2)nc1CCc1ccccc1CC(N)=O` [Compound 31, 2-(2-(2-(2-(4-(3-aminooxetan-3-yl)phenylamino)-5-methylpyrimidin-4-yl)ethyl)phenyl)acetamide], for which half-maximal inhibition (IC50) was put at 5100 nM. Under `Cc1cnc(Nc2cnn(C3CCNCC3)c2)nc1CCc1ccccc1CC(N)=O` [Compound 33, 2-(2-(2-(5-Methyl-2-((1-(piperidin-4-yl)-^1H-pyrazol-4-yl)amino)pyrimidin-4-yl)ethyl)phenyl)acetamide] stands more than 10000 nM; under `CC(N)c1ccc(Nc2ncc(Cl)c(CCc3ccccc3CC(N)=O)n2)cc1` (stereo not drawn) [Compound 37, 2-(2-(2-(2-(4-(1-aminoethyl)phenylamino)-5-chloropyrimidin-4-yl)ethyl)phenyl)acetamide], 200 nM.

These data come from US20150225377A1, “VEGFR3 INHIBITORS” (CANCER THERAPEUTICS CRC PTY LIMITED, priority 2012, published 2015).
